Laboratory results from PubChem BioAssay (NCI).
Where “and” joins values, the source holds several entries; their conditions need not be identical. Equal entries are not always repeated.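 How tested: cells in 96-well plates exposed to compound for 48 hours at five concentrations. GI50: concentration for 50% inhibition of growth. The concentration for full growth arrest is given as TGI.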

Experiments:
Assay in all cases: inhibition of tumour cell growth, NCI panel, 48 h
786-0 renal = system: 786-0 renal
HS 578T breast = system: HS 578T breast
IGROV1 ovarian = system: IGROV1 ovarian
LOX IMVI melanoma = system: LOX IMVI melanoma
NCI/ADR-RES ovarian = system: NCI/ADR-RES ovarian
OVCAR-4 ovarian = system: OVCAR-4 ovarian
SN12C renal = system: SN12C renal
SW-620 colon = system: SW-620 colon
T-47D breast = system: T-47D breast
UO-31 renal = system: UO-31 renal

Structure (SMILES)	GI50 (786-0 renal)	TGI (786-0 renal)	GI50 (HS 578T breast)	TGI (HS 578T breast)	GI50 (IGROV1 ovarian)	TGI (IGROV1 ovarian)	GI50 (LOX IMVI melanoma)	TGI (LOX IMVI melanoma)	GI50 (NCI/ADR-RES ovarian)	TGI (NCI/ADR-RES ovarian)	GI50 (OVCAR-4 ovarian)	TGI (OVCAR-4 ovarian)	GI50 (SN12C renal)	TGI (SN12C renal)	GI50 (SW-620 colon)	TGI (SW-620 colon)	GI50 (T-47D breast)	TGI (T-47D breast)	GI50 (UO-31 renal)	TGI (UO-31 renal)
C#Cc1cccc(Nc2nc(C)nc3cc(NC(=O)CCl)ccc23)c1	0.461 µM	1.03 µM	2.8 µM	10.2 µM	0.533 µM	1.37 µM	0.424 µM	0.95 µM	3.42 µM	12.5 µM	1.83 µM	6.05 µM	0.896 µM	3.58 µM	0.659 µM	1.93 µM	3.17 µM	7.69 µM	3.24 µM	6.74 µM
COc1ccc(NC(=O)c2ccc(C(F)(F)F)nc2Nc2ccc(Cl)cc2C)cc1Cl	9.41 µM	23.1 µM	6.9 µM	28.3 µM			3.96 µM	13.5 µM	3.17 µM	14.9 µM	3.18 µM	17.5 µM	3.65 µM	14 µM	4.09 µM	14.7 µM	2.58 µM	28.9 µM	4.39 µM	17.8 µM
NC(=O)c1ccc(I)c([N+](=O)[O-])c1	> 100 µM	> 100 µM	> 66.2 µM	> 100 µM	> 100 µM	> 100 µM	44.5 µM	> 100 µM	> 100 µM	> 100 µM	17.2 µM	32.1 µM	> 75.9 µM	> 100 µM	> 100 µM	> 100 µM	35.8 µM	> 100 µM	> 100 µM	> 100 µM
COc1ccc2c(c1)C(=O)/C(=C/c1ccc(O)cc1)O2	17.9 µM	41.4 µM	28.6 µM	> 86.3 µM	6.87 µM	20.8 µM	3.29 µM	14 µM	26.1 µM	> 83.6 µM	5.67 µM	12.7 µM	14.1 µM	32 µM	3.34 µM	8.99 µM	7.27 µM	37.6 µM	4.73 µM	9.39 µM
COC(=O)[C@@H](C)C[C@H](Cc1ccccc1)NC(=O)c1csc([C@@H](C[C@H](C(C)C)N(C)C(=O)[C@@H](NC(=O)[C@H]2CCCCN2C)c2ccc(F)cc2)OC(C)=O)n1		6.23 µM and 42.5 µM		> 100 µM		25 µM and > 100 µM		6.71 µM and 20.8 µM	1.81 µM and 3.8 µM	25 µM and > 100 µM		25 µM and > 100 µM		22.2 µM and 19.5 µM		25 µM and > 100 µM	0.00826 µM			
CN1CCN(c2ccncc2S(=O)(=O)N2CCN(C)CC2)CC1		> 100 µM		> 100 µM		> 100 µM		> 100 µM		> 100 µM		> 100 µM				> 100 µM		> 100 µM		> 100 µM
